Measured values: patent US20250154143A1, “PRODRUGS FOR USE IN THE TREATMENT OF TISSUE DAMAGE” (UCL BUSINESS LTD, priority 2021, published 2025)
Converted amounts (≈) assume the structure as drawn. Where a name gives a salt, the structure may show the parent alone.

Experiments:
[1] = Thermodynamic solubility in PBS, FaSSIF and SGF; type: physicochemical; conditions: thermodynamic from solid, room temperature
Experimental: A known quantity of the Examples and control compounds were weighed into a suitable vessel (whatman miniuniprep vials) and a known volume of the required media was added (e.g. Simulated Gastric Fluid pH 1.2 [SGF], Simulated Fasted State Intestinal Fluid pH 6.5 [FaSSIF] or Phosphate Buffered Saline pH 7.4 [PBS]). The samples were subjected to vortex mixing for 2 minutes followed by agitation on a shaker for 24 hours at room temperature at 800 rpm. The samples were then centrifuged for 20 minutes at 4000 rpm, the miniuniprep vials compressed and the filtrates analysed by HPLC (Waters Xbridge C18 4.6×100 mm, mobile phase A: 0.1% TFA in water, mobile phase B: 0.1% TFA in acetonitrile).

[2] = biological target: T1, human CRP (Homo sapiens, UniProt P02741); conditions: rat acute myocardial infarction model, rats receiving human CRP; cited from earlier work
T1 construct: The final concentrations were 0.73 μM native pentameric CRP; from tissue
T1 sequence (P02741 19-224): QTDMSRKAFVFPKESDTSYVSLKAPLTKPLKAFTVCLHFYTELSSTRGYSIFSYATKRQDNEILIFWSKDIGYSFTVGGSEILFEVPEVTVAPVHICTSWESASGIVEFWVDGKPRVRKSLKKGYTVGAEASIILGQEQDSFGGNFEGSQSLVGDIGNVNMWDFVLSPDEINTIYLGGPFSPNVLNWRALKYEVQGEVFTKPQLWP

[3] = Stability in FaSSIF, SGF and PBS; type: physicochemical; conditions: 37° C.
Experimental: 10 μL of a 10 mM stock solution of the Examples were dissolved in 490 μL DMSO to afford […] working solution
Dissolve 0.04 g NaCl and 0.064 g pepsin in 0.14 mL HCl and add sufficient water to 20 mL volume. The pH of the test solution was 1.20±0.05.
0.056% (w/v) lecithin, 0.161% (w/v) sodium taurocholate, 0.39% (w/v) monobasic potassium phosphate, 0.77% (w/v) potassium chloride, deionized H2O. The pH of the test solution was 6.5±0.05.
30 mL of 10×PBS (pH7.4) was added into a 50 mL flask and diluted with water. The solution was mixed well and adjusted to pH 7.4 with 1N HCl.
Protocol for Determining Stability 2 μL of the 200 μL working solution of the Examples was added into 96-deep-well plates for T0, T60, T120, T360 and T1440 timepoints. Duplicates were prepared.
Stability studies were commenced by the addition of 198 μL of the required media (e.g. Simulated Gastric Fluid pH 1.2 [SGF], Simulated Fasted State Intestinal Fluid pH 6.5 [FaSSIF]) and Phosphate Buffered Saline pH 7.4 [PBS]) to each well except T0. The samples were incubated at 37° C. at 600 rpm for the appointed time. The samples at the corresponding timepoint were removed and immediately mixed with 400 μL of 0.3% FA in MeCN containing 200 ng/mL tolbutamide and labetalol (internal standard). 200 μL of suspension was removed and mixed with 400 μL of 0.3% FA in cold MeCN containing 200 ng/mL tolbutamide and labetalol. The samples were centrifuged at 4000 rpm at 4° C. for 20 minutes. 60 μL of the supernatant was removed and mixed with 180 μL purified water and thoroughly mixed and analysed by LCMS (Shimadzu LC 30-AD, ACQUITY UPLC HSS T3 1.8 um 2.1*50 mm Part No. 186003538, with mobile phase A: 0.1% formic acid in water, mobile phase B: 0.1% formic acid in MeCN. Formation of parent was also monitored as a metabolite.
Samples were analysed by Mass Spectrometry QTRAP 6500+

[4] = Phosphate Buffered Saline (PBS), aqueous buffer, PBS pH 7.4, 24 hour timepoint
[5] = Simulated Fasted State Intestinal Fluid (FaSSIF), FaSSIF pH 6.5, 24 hour timepoint
[6] = Simulated Gastric Fluid (SGF), simulated gastric fluid, SGF pH 1.2, 24 hour timepoint

SMILES | solubility thermodynamic at 24 h [1, 4] [µg/mL] | solubility thermodynamic at 24 h [1, 5] [µg/mL] | solubility thermodynamic at 24 h [1, 6] [µg/mL] | Effect on adverse effects of human CRP [2] | FaSSIF (pH 6.5) % remaining ([3]; FaSSIF pH 6.5, 6 hr) [%] | FaSSIF (pH 6.5) % remaining ([3]; FaSSIF pH 6.5, 24 h) [%] | PBS (pH 7.4) % remaining ([3]; PBS pH 7.4, 6 h) [%] | PBS (pH 7.4) % remaining ([3]; PBS pH 7.4, 24 h) [%] | SGF (pH 1.2) % remaining ([3]; SGF pH 1.2, 6 h) [%] | SGF (pH 1.2) % remaining ([3]; SGF pH 1.2, 24 h) [%]
O=C(N[C@@H](C(=O)O)C1CN2CCC1CC2)c1ccc(C(=O)N[C@@H](C(=O)O)C2CN3CCC2CC3)cc1 (stereo partly drawn) [APL-2191.2HCl, (R,2R,2′R)-2,2′-(terephthaloylbis(azanediyl))bis(2-((R)-quinuclidin-3-yl)acetic acid) bis hydrochloride salt] | 1690 | 2510 | 4560 | – | – | – | – | – | – | –
C[N+](C)(C)CCOP(=O)([O-])OCCCCCCOP(=O)([O-])OCC[N+](C)(C)C [BPC6, bis(phosphocholine)hexane] | – | – | – | completely abrogate the adverse effects of human CRP | – | – | – | – | – | –
C[N+](C)(C)CCOP(=O)(O)OCCCCCCCCOP(=O)(O)OCC[N+](C)(C)C [BPC8, bis(phosphocholine)octane] | – | – | – | completely abrogate the adverse effects of human CRP | – | – | – | – | – | –
COC(=O)[C@H](NC(=O)c1ccc(C(=O)N[C@@H](C(=O)OC)C2CN3CCC2CC3)cc1)C1CN2CCC1CC2 (stereo partly drawn) [Example 1, (R,2R,2′R)-2,2′-(terephthaloylbis(azanediyl))bis(2-((R)-quinuclidin-3-yl)acetic acid) bis methyl ester] | 1220 (≈ 2.31 mM) | 4690 (≈ 8.9 mM) | 5930 (≈ 11.3 mM) | – | 98.3 | 113.3 | 84.07 | 55.89 | 101.2 | 92.6
CCOC(=O)[C@H](NC(=O)c1ccc(C(=O)N[C@@H](C(=O)OCC)C2CN3CCC2CC3)cc1)C1CN2CCC1CC2 (stereo partly drawn) [Example 12, (R,2R,2′R)-2,2′-(terephthaloylbis(azanediyl))bis(2-((R)-quinuclidin-3-yl)acetic acid) bis ethyl ester] | 5520 (≈ 9.94 mM) | 4540 (≈ 8.18 mM) | 4000 (≈ 7.22 mM) | – | 105.0 | 95.2 | 84.33 | 87.14 | 101.2 | 92.3
CC(C)OC(=O)[C@H](NC(=O)c1ccc(C(=O)N[C@@H](C(=O)OC(C)C)C2CN3CCC2CC3)cc1)C1CN2CCC1CC2 (stereo partly drawn) [Example 13, (R,2R,2′R)-2,2′-(terephthaloylbis(azanediyl))bis(2-((R)-quinuclidin-3-yl)acetic acid) bis isopropyl ester] | 4560 (≈ 7.83 mM) | 5200 (≈ 8.93 mM) | 5140 (≈ 8.82 mM) | – | 99.7 | 110.4 | 103.43 | 104.61 | 107.2 | 100.0
